# Tested on: OVCAR-5 complex spheroid (HUVEC/MSC), viability % T/C
# Assay: Anticancer human tumor OVCAR-5 cell line growth inhibition [Asc];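 further: spheroids exposed to agents for 7 days before readout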;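 on viability, T/C: 100% = DMSO vehicle-treated wells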
# Settings: for IC50: curve of first compound; for viability, T/C: stronger effect = lower value
# Summary of the method: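 Tumor cells were grown as complex spheroids with human endothelial cells (HUVEC) and human mesenchymal stem cells as stroma. Agents were tested alone and in combination, in half-log steps down from the clinical Cmax, or from 10 microM where Cmax was unknown.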
structure (smiles),measurement,setting,value
NC(=O)C(=Cn1cnc(-c2cc(C(F)(F)F)cc(C(F)(F)F)c2)n1)c1cncnc1 + Cc1c(S(C)(=O)=O)c(-c2cc(F)cc(N3CCN(c4ccc(NS(=O)(=O)c5ccc(NC(CCN6CCC(C(=O)OCCCP(=O)(O)O)CC6)CSc6ccccc6)c(S(=O)(=O)C(F)(F)F)c5)cc4)CC3)c2)c(-c2ccc(Cl)cc2)n1C(C)C,IC50,second compound 0.1 µM,199 nM
same,IC50,second compound 0.316 µM,137 nM
same,IC50,second compound 1 µM,106 nM
same,IC50,second compound 3.16 µM,63.9 nM
same,IC50,second compound 10 µM,66.8 nM
same,"viability, T/C","second compound 0.1 µM, first compound 0.000949 µM",106%
same,"viability, T/C","second compound 0.1 µM, first compound 0.003 µM",99.1%
same,"viability, T/C","second compound 0.1 µM, first compound 0.00949 µM",91.7%
same,"viability, T/C","second compound 0.1 µM, first compound 0.03 µM",79.6%
same,"viability, T/C","second compound 0.1 µM, first compound 0.0949 µM",82.2%
same,"viability, T/C","second compound 0.1 µM, first compound 0.3 µM",34.8%
same,"viability, T/C","second compound 0.316 µM, first compound 0.000949 µM",100%
same,"viability, T/C","second compound 0.316 µM, first compound 0.003 µM",96.2%
same,"viability, T/C","second compound 0.316 µM, first compound 0.00949 µM",93.7%
same,"viability, T/C","second compound 0.316 µM, first compound 0.03 µM",77.6%
same,"viability, T/C","second compound 0.316 µM, first compound 0.0949 µM",60.3%
same,"viability, T/C","second compound 0.316 µM, first compound 0.3 µM",29.3%
same,"viability, T/C","second compound 1 µM, first compound 0.000949 µM",98.3%
same,"viability, T/C","second compound 1 µM, first compound 0.003 µM",103%
same,"viability, T/C","second compound 1 µM, first compound 0.00949 µM",79.7%
same,"viability, T/C","second compound 1 µM, first compound 0.03 µM",79%
same,"viability, T/C","second compound 1 µM, first compound 0.0949 µM",53.1%
same,"viability, T/C","second compound 1 µM, first compound 0.3 µM",19.1%
same,"viability, T/C","second compound 3.16 µM, first compound 0.000949 µM",97.1%
same,"viability, T/C","second compound 3.16 µM, first compound 0.003 µM",98.5%
same,"viability, T/C","second compound 3.16 µM, first compound 0.00949 µM",91.8%
same,"viability, T/C","second compound 3.16 µM, first compound 0.03 µM",66.3%
same,"viability, T/C","second compound 3.16 µM, first compound 0.0949 µM",41.9%
same,"viability, T/C","second compound 3.16 µM, first compound 0.3 µM",17%
same,"viability, T/C","second compound 10 µM, first compound 0.000949 µM",119%
same,"viability, T/C","second compound 10 µM, first compound 0.003 µM",121%
same,"viability, T/C","second compound 10 µM, first compound 0.00949 µM",111%
same,"viability, T/C","second compound 10 µM, first compound 0.03 µM",85.2%
same,"viability, T/C","second compound 10 µM, first compound 0.0949 µM",34.5%
same,"viability, T/C","second compound 10 µM, first compound 0.3 µM",8.64%
NC1CCC(NC2CC2c2ccccc2)CC1 (stereo not given) + Cc1c(S(C)(=O)=O)c(-c2cc(F)cc(N3CCN(c4ccc(NS(=O)(=O)c5ccc(NC(CCN6CCC(C(=O)OCCCP(=O)(O)O)CC6)CSc6ccccc6)c(S(=O)(=O)C(F)(F)F)c5)cc4)CC3)c2)c(-c2ccc(Cl)cc2)n1C(C)C,IC50,second compound 0.1 µM,> 100 nM
same,IC50,second compound 0.316 µM,> 100 nM
same,IC50,second compound 1 µM,> 100 nM
same,IC50,second compound 3.16 µM,> 100 nM
same,IC50,second compound 10 µM,> 100 nM
same,"viability, T/C","second compound 0.1 µM, first compound 0.000316 µM",86%
same,"viability, T/C","second compound 0.1 µM, first compound 0.001 µM",103%
same,"viability, T/C","second compound 0.1 µM, first compound 0.00316 µM",89.5%
same,"viability, T/C","second compound 0.1 µM, first compound 0.01 µM",94.1%
same,"viability, T/C","second compound 0.1 µM, first compound 0.0316 µM",103%
same,"viability, T/C","second compound 0.1 µM, first compound 0.1 µM",92.3%
same,"viability, T/C","second compound 0.316 µM, first compound 0.000316 µM",87.9%
same,"viability, T/C","second compound 0.316 µM, first compound 0.001 µM",95.6%
same,"viability, T/C","second compound 0.316 µM, first compound 0.00316 µM",85%
same,"viability, T/C","second compound 0.316 µM, first compound 0.01 µM",81.9%
same,"viability, T/C","second compound 0.316 µM, first compound 0.0316 µM",90.3%
same,"viability, T/C","second compound 0.316 µM, first compound 0.1 µM",93.1%
same,"viability, T/C","second compound 1 µM, first compound 0.000316 µM",94.7%
same,"viability, T/C","second compound 1 µM, first compound 0.001 µM",94.2%
same,"viability, T/C","second compound 1 µM, first compound 0.00316 µM",90.7%
same,"viability, T/C","second compound 1 µM, first compound 0.01 µM",81%
same,"viability, T/C","second compound 1 µM, first compound 0.0316 µM",92.4%
same,"viability, T/C","second compound 1 µM, first compound 0.1 µM",86.3%
same,"viability, T/C","second compound 3.16 µM, first compound 0.000316 µM",94.9%
same,"viability, T/C","second compound 3.16 µM, first compound 0.001 µM",95.5%
same,"viability, T/C","second compound 3.16 µM, first compound 0.00316 µM",83.7%
same,"viability, T/C","second compound 3.16 µM, first compound 0.01 µM",76%
same,"viability, T/C","second compound 3.16 µM, first compound 0.0316 µM",93.2%
same,"viability, T/C","second compound 3.16 µM, first compound 0.1 µM",87.8%
same,"viability, T/C","second compound 10 µM, first compound 0.000316 µM",115%
same,"viability, T/C","second compound 10 µM, first compound 0.001 µM",110%
same,"viability, T/C","second compound 10 µM, first compound 0.00316 µM",120%
same,"viability, T/C","second compound 10 µM, first compound 0.01 µM",107%
same,"viability, T/C","second compound 10 µM, first compound 0.0316 µM",104%
same,"viability, T/C","second compound 10 µM, first compound 0.1 µM",112%

# — PubChem BioAssay AID1963436 (Molecular Pharmacology Branch, DTP, NCI, 2024)
